Reference: PMC8949258, “Synthesis, Characterization and Anticancer Efficacy Evaluation of Benzoxanthone Compounds toward Gastric Cancer SGC-7901” (Molecules, 2022)

Columns and labels:
[1] = tested on: A549; experiment: MTT in vitro cytotoxicity assay, A549; type: cell-based; settings: Homo sapiens, 48 h
Description: (§1) Roswell Park Memorial Institute Medium (RPMI-1640) was used to culture BEL-7402 and SGC-7901 cell lines; and A549, HeLa and LO2 cells were cultured in Dulbecco’s Modified Eagle’s Medium (DMEM) containing 10% fetal bovine serum (FBS). Cell passage experiments were performed with trypsin every 2 days to maintain exponential growth. All cells were cultured until they reached logarithmic growth phase, unless specifically noted.
(§2) The cytotoxicity test was carried out according to a method described in the literature. The cells were seeded into 96-well micro-assay culture plates and grown overnight in a 5% CO2 incubator at 37 °C. Then, the cells were treated with gradient concentrations of the compounds when the cells grew to 60–70%. At 48 h posttreatment, the medium was removed and MTT solution was added. After 4 h, the absorbance at 490 nm was measured with a microplate reader. The IC50 values were calculated by SPSS (Statistical Product and Service Solutions) software.

[2] = tested on: SGC-7901; experiment: MTT in vitro cytotoxicity assay, SGC-7901; type: cell-based; settings: Homo sapiens, 48 h
Description: as §1, §2

[3] = tested on: HeLa; experiment: MTT in vitro cytotoxicity assay, HeLa; type: cell-based; settings: Homo sapiens, 48 h
Description: as §1, §2

[4] = tested on: BEL-7402; experiment: MTT in vitro cytotoxicity assay, BEL-7402; type: cell-based; settings: Homo sapiens, 48 h
Description: as §1, §2

[5] = tested on: LO2; experiment: MTT in vitro cytotoxicity assay, normal cell line LO2; type: cell-based; settings: Homo sapiens, L02, 48 h
Description: as §1, §2

[6] = tested on: calf thymus DNA (CT-DNA); experiment: Viscosity experiments with CT-DNA; type: binding; settings: 25 (±0.1) °C, [DNA] = 200 μM, compounds 0 to 90 μM
Description: An ubberhold viscometer was used to measure the viscosity of the CT-DNA solution in the absence and presence of compounds, and the temperature was maintained at 25 ± 0.1 °C. The concentration of CT-DNA was 200 μM, and the concentrations of the compounds varied from 0 to 90 μM. The flow times were recorded with a digital stopwatch; each sample was measured three times to get the average time.

[7] = tested on: calf thymus DNA (CT-DNA); experiment: EB-competitive binding, luminescence titration; settings: EB-CT-DNA (DNA:EB = 1.25:1), compounds 6.62–50 μM
Description: We used ethidium bromide (EB)-competing binding experiments to investigate the binding mode between the compounds and CT-DNA. It is well known that EB combines DNA molecules through a classic intercalative mode. Maintaining the DNA-EB solution concentration (DNA:EB = 1.25:1) and varying the concentrations of compounds (6.62–50 μM), the spectra were recorded after 5 min. The Stern-Volmer constants (Ksv) were calculated using the following Equation (3):F0/F = 1 + Ksv [Q](3) where F0 and F were the fluorescence intensities of the EB-CT DNA solution at 550–700 nm in the absence and presence of the compounds, respectively. [Q] was the concentration of compounds. In plots of F0/F versus [Q], Ksv was given by the ratio of the slope to the intercept.

[8] = tested on: SGC-7901 cells; experiment: Intracellular ROS levels (DCFH-DA); type: cell-based, human; settings: SGC-7901, IC50 concentrations, 24 h, versus control
Description: SGC-7901 cells were seeded in 12-well plate at a density of 1.5 × 10^5 cells per well for 24 h. Then, the medium was replaced with medium containing compounds for 24 h. After treatment, the medium was removed and washed three times with PBS, and the cells were stained with 20 μM DCFH-DA for 30 min in the dark. Finally, the cells were imaged under ImageXpress Mico XLS system (MD company, San Jose, CA, USA).

[9] = Partition coefficient by shake flask method; type: physicochemical; settings: octanol / phosphate buffer (0.129 M NaCl, pH = 7.4)
Description: Partition coefficients of compounds in octanol and phosphate buffer (0.129 M NaCl, pH = 7.4) were measured as described by Owellen and coworkers. The concentrations of the compounds in the octanol and phosphate buffer phases were determined three times using a UV/Vis spectrophotometer. The partition coefficients were calculated from the ratio Coct/CPBS, where Coct and CPBS were the concentrations of the compound in the octanol and phosphate buffer, respectively.

[10] = tested on: SGC-7901 cells; experiment: Intracellular GSH assay; type: cell-based, human; settings: SGC-7901, IC50 concentrations, 24 h
Description: (§3) After incubation with IC50 concentrations of 3b and 3c for 24 h, SGC-7901cells were lysed. The lysate was centrifuged for 15 min to collect the supernatant. The protein concentration was determined using a BCA Protein Assay Kit (Beyotime, Shanghai, China). A lipid peroxidation MDA assay kit (Beyotime, Shanghai, China) was used to detect MDA content, and a GSH and GSSG Assay Kit was used to detect intracellular GSH. SGC-7901 cells were incubated with IC50 concentrations of 3b and 3c for 24 h. Afterwards, the cells were lysed by the freeze-thaw method, and the lysate was centrifuged for 5 min to collect the supernatant. The absorbance was measured at 412 nm with a microplate reader.

[11] = pKa by potentiometric titration; type: physicochemical; settings: aqueous dimethyl sulfoxide (30% DMSO), 30% dimethyl sulfoxide, 0.15 M KCl
Description: The pKa values of the compounds were determined by potentiometric titration using a pH meter (Basic pH Meter PB-10, Sartorius) calibrated with standard buffers of pH 4.01, 6.86 and 9.18 [26]. The compounds were dissolved in aqueous dimethyl sulfoxide (30% dimethyl sulfoxide) at constant ionic strength (0.15 M KCl). The solution was pre-acidified to approximately pH = 2 with 0.24 M HCl, and titrated until pH = 12 with 0.06 M KOH.

[12] = tested on: SGC-7901 cells; experiment: Intracellular Ca2+ levels (Fluo-3AM); type: cell-based, human; settings: SGC-7901, IC50 concentrations, 24 h, versus control
Description: Fluo-3AM, a Ca^2+-sensitive fluorescent probe, was used to detect the level of intracellular Ca^2+. SGC-7901 cells were incubated with IC50 concentrations of the compounds for 24 h at 37 °C. Then, the cells were washed three times with PBS, incubated with Fluo-3AM, and observed under an ImageXpress Micro XLS system (MD company, San Jose, CA, USA). The fluorescence intensity was analyzed under a high content analysis system.

[13] = tested on: SGC-7901 cells; experiment: Intracellular MDA assay; type: cell-based, human; settings: SGC-7901, IC50 concentrations, 24 h
Description: as §3

[14] = tested on: SGC-7901 cells; experiment: Cellular uptake (DAPI, fluorescence microscope); type: cell-based, human; settings: SGC-7901, IC50 concentrations, 24 h
Description: Cellular uptake studies were performed according to a method described in the literature. SGC-7901 cells were placed in 24-well microassay culture plates and grown overnight at 37 in a 5% CO2 incubator. The compounds tested were then added to the wells. […] Upon completion of incubation, the wells were washed three times with phosphate buffered saline (PBS). After moving the culture medium, the cells were stained with 2-(4-amidinophenyl)-6-indolecarbamidine dihydrochloride (DAPI) and observed under fluorescence microscope.

[15] = tested on: CRT, HSP70 and HMGB1; experiment: Immunostaining of CRT, HSP70 and HMGB1 (immunogenic cell death); type: cell-based, human; settings: SGC-7901, IC50 concentrations, 24 h
Description: The SGC-7901 cells were cultured in 12-well plates and treated with IC50 concentrations of 3b and 3c for 24 h. The cells were fixed with 75% alcohol, and then washed and incubated with immunostaining blocker for 1 h. The primary antibody CRT Antibody, HSP70 Antibody and HMGB1 antibody were incubated for 12 h and then the cells were washed three times with PBS. Next, the secondary antibody FITC-labeled Goat Anti-Rabbit IgG was incubated in darkness for 1 h. The cells were washed three times with PBS. Finally, the nuclei were stained with Hoechst and photographed under Micro XLS System (MD company, San Jose, CA, USA).

[16] = tested on: P38 MAPK; experiment: Western blot of P38 MAPK expression; type: cell-based, human; settings: SGC-7901, IC50 concentrations, 24 h
Description: SGC-7901 cells were seeded in six-well plates for 24 h and incubated with IC50 concentrations of the compounds in the presence of 10% fetal bovine serum (FBS). The cells were then harvested in lysis buffer. After sonication, the samples were centrifuged for 20 min at 13,000× g. The protein concentration of the supernatant was determined by BCA (bicinchoninic acid) assay. Sodium dodecyl sulfate–polyacrylamide gel electrophoresis was carried out with loading equal amounts of proteins per lane. The gels were then transferred to poly (vinylidene difluoride) membranes (Millipore, Billerica, MA, USA) and blocked with 5% nonfat milk in TBST (20 mM Tris-HCl, 150 mM NaCl, 0.05% Tween 20, pH 8.0, Tween: polyoxyethylene monolaurate sorbaitan) buffer for 3 h. The polyvinylidene difluoride membranes were washed four times with TBST (4 × 10 min) and incubated with primary antibody solution at 4 °C overnight. They were then washed four times with TBST for a total of 30 min. The secondary antibodies were then conjugated with horseradish peroxidase (1:5000 dilution) for 70 min at room temperature and washed four times with TBST. The blots were visualized with the Amersham ECL ([…]) and western blotting detection reagents according to the manufacturer’s instructions.

[17] = Stability in PBS by UV-Vis spectra; type: physicochemical
Description: The stability of 3b and 3c in PBS was studied by UV-Vis spectra.

[18] = tested on: SGC-7901 cells; experiment: Mitochondrial membrane potential assay (JC-1); type: cell-based, human; settings: SGC-7901, IC50 concentrations, 24 h; control 5.85
Description: SGC-7901 cells were treated with IC50 concentrations of the compounds in 12-well plates for 24 h and were washed three times with cold PBS. Then, the cells were stained with 1 μg/mL JC-1 for 30 min at 37 °C in the dark. After that, the cells were washed twice with ice-cold PBS to remove residual stain and imaged under the ImageXpress Micro XLS system (MD company, San Jose, CA, USA).

[19] = tested on: SGC-7901 cells; experiment: ATP measurement; type: cell-based, human; settings: SGC-7901, IC50 concentrations, 24 h
Description: The SGC-7901 cells were cultured in six-well plates and treated with IC50 concentrations of 3b and 3c for 24 h. The cells were lysed for 10 min and centrifuged to obtain the supernatant. The prepared ATP detection working solution was added into the supernatant, 5 min late, the RLU value was measured.

[20] = tested on: SGC-7901 cells; experiment: Cell cycle arrest by flow cytometry (PI); type: cell-based, human; settings: SGC-7901, IC50 concentrations, 24 h
Description: The cell cycle arrest was carried out using a method described in the literature. Briefly, SGC-7901 cells were treated with IC50 concentrations of compounds for 24 h. Then, the cells were harvested and fixed overnight in 70% ethanol at 4 °C. Next, the permeabilized cells were stained with PI/RNase buffer and the DNA content was determined on a flow cytometer. The results were analyzed by ModFit LT 4.0 (Verity Software House, Topsham, ME, USA).

SMILES: O=C(O)CCc1cccc2oc3ccc4ccccc4c3c(=O)c12 [Compound 3a, 3-(12-oxo-12H-benzo[a]xanthen-11-yl)propanoic acid]
- IC50 [1]: > 100 µM
- IC50 [2]: > 100 µM
- IC50 [3]: > 100 µM
- IC50 [4]: > 100 µM
- IC50 [5]: > 100 µM

SMILES: COC(=O)c1ccc2c(ccc3oc4cccc(CCC(=O)O)c4c(=O)c32)c1 [Compound 3b, 3-(3-methoxycarbonyl-12-oxo-12H-benzo[a]xanthen-11-yl)propanoic acid]
- relative viscosity of CT-DNA with increasing compound concentration [6]: increased
- IC50 [1]: 51.5 ± 13.7 µM
- Stern-Volmer constant (Ksv) [7]: 2.20 (±0.12) × 10^3 M^−1
- increase of DCF fluorescence intensity [8]: about 60.5%
- logP [9]: 0.822
- GSH concentration [10]: 69.96 µM
- IC50 [2]: 45.6 ± 6.5 µM
- pKa [11]: 7.48
- increase of Flu-3-AM fluorescence intensity (intracellular Ca2+) [12]: 1.67 times
- MDA [13]: 5.58 nmol/mg
- IC50 [3]: 68 ± 9.28 µM
- IC50 [4]: > 100 µM
- cellular uptake [14]: enter the cytoplasm and accumulate in the nuclei
- expression of CRT, HSP70 and HMGB1 [15]: increased
- P38 MAPK expression [16]: significantly upregulated
- stability in PBS ([17]; UV-Vis spectra at 0 and 48 h): stable in PBS
- solubility in PBS ([17]; precipitate observed at 48 h): low solubility in PBS
- ratio of red/green fluorescence (R), JC-1 [18]: 3.01
- IC50 [5]: 38.1 ± 0.41 µM
- ATP concentration [19]: 3.30 µM
- Percentage in the cell G0/G1 [20]: 74.6%
- Percentage in the cell G2/M [20]: 17.4%
- increase in the cell at G0/G1 phase ([20]; versus control): 17.7%
